This experiment addresses T1, Human PKK (Homo sapiens, UniProt P03952).
T1 construct: purchased Enzyme Research Laboratories
The experiment can be described thus: Inhibition of PKK using an endpoint assay (human PKK). The format is biochemical. The note with it: fluorogenic substrate H-Pro-Phe-Arg-AMC, 1 h room temperature, method names human or rat PKK, table does not say which. As for the experimental part: The ability of compounds of formula (I) to inhibit plasma kallikrein (PKK), Factor XIIa (FXIIa), Factor XIa (FXIa), Factor Xa (FXa), Factor IIa (alpha-thrombin; FIIa), plasmin, trypsin, tissue kallikrein 1 (TK1), Factor VIIa (FVIIa), or FVIIa complexed with Tissue Factor, phospholipids and CaCl2 (FVIIa/TF/PL/CaCl2) is determined using the following biochemical assays in assay buffer (100 mM Tris, 150 mM NaCL, adjusted to a pH of 7.8 with HCl, and containing 0.1% (w/v) BSA and 0.05% (v/v) Tween20) in the presence of 1% (v/v) DMSO:
Subsequently, PPACK II (Calbiochem) is added as a stop solution to achieve a final concentration of 1 μM and fluorescence is measured using an Envision Reader (PerkinElmer) with the wavelength excitation setting of 355 nm and the wavelength emission setting of 460 nm.
T1 sequence (P03952 20-390 limits assumed): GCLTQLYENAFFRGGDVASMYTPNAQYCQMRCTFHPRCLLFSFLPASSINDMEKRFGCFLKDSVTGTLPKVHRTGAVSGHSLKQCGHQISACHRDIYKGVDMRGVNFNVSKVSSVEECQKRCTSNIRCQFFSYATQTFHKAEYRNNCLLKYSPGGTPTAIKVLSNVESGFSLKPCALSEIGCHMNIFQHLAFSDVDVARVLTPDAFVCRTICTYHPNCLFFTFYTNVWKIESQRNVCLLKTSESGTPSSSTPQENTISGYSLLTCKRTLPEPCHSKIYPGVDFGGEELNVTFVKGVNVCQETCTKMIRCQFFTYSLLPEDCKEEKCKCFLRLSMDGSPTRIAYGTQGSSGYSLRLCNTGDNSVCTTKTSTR
T1 sequence (P03952 391-638 limits assumed): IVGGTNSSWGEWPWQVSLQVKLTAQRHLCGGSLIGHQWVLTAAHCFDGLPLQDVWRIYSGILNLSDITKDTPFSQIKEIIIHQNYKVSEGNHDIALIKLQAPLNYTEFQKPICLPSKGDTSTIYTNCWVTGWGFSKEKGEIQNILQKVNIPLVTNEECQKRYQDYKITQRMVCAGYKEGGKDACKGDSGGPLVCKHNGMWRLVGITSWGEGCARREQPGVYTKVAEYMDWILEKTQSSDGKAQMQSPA
`Cn1cnc2c1CC[C@H]2NC(=O)c1cnn(Cc2ccc(N3CC4(CC4)C3)cn2)c1` [Example 19, 1-[(5-{5-Azaspiro[2.3]hexan-5-yl}pyridin-2-yl)-methyl]-N-[(4R)-1-methyl-1H,4H,5H,6H-cyclopenta[d]imidazol-4-yl]-1H-pyrazole-4-carboxamide] showed an IC50 of 14.2 nM. The value for `Cn1cnc2c1CC[C@H]2NC(=O)c1cn(Cc2ccc(N3CC4CC4C3)nc2OC(F)(F)F)cn1` (stereo partly drawn) [Example 38, 1-[(6-{3-Azabicyclo[3.1.0]hexan-3-yl}-2-(trifluoromethoxy)-pyridin-3-yl)methyl]-N-[(4R)-1-methyl-1H,4H,5H,6H-cyclopenta[d]imidazol-4-yl]-1H-imidazole-4-carboxamide] was 3.4 nM; that for `Cn1cnc2c1CC[C@H]2NC(=O)c1cnn(Cc2ccc(N3CC4CC4C3)nc2OC(F)(F)F)c1` (stereo partly drawn) [Example 58, 1-[(6-{3-Azabicyclo[3.1.0]hexan-3-yl}-2-(trifluoromethoxy)-pyridin-3-yl)methyl]-N-[(4R)-1-methyl-1H,4H,5H,6H-cyclopenta[d]imidazol-4-yl]-1H-pyrazole-4-carboxamide] was 2.5 nM.

`CC(CO)c1nc(N2CC3CC3C2)ccc1Cn1cc(C(=O)N[C@@H]2CCc3c2ncn3C)cn1` (stereo partly drawn) [Example 59, 1-[(6-{3-Azabicyclo[3.1.0]hexan-3-yl}-2-(1-hydroxypropan-2-yl)pyridin-3-yl)methyl]-N-[(4R)-1-methyl-1H,4H,5H,6H-cyclopenta[d]imidazol-4-yl]-1H-pyrazole-4-carboxamide]: the midpoint of inhibition, the IC50, lay at 0.4 nM.

For the molecule `Cn1cnc2c1CC[C@H]2NC(=O)c1cnn(Cc2ccc(N3CC4CC4C3)nn2)c1` (stereo partly drawn) [Example 60, 1-[(6-{3-Azabicyclo[3.1.0]hexan-3-yl}pyridazin-3-yl)methyl]-N-[(4R)-1-methyl-1H,4H,5H,6H-cyclopenta[d]imidazol-4-yl]-1H-pyrazole-4-carboxamide], the IC50 was found to be 18.8 nM.

The molecule `Cn1cnc2c1CC[C@H]2NC(=O)c1cn(Cc2ccc(N3CC4(CC4)C3)nc2CO)nn1` [Example 61, 1-[(6-{5-Azaspiro[2.3]hexan-5-yl}-2-(hydroxymethyl)-pyridin-3-yl)methyl]-N-[(4R)-1-methyl-1H,4H,5H,6H-cyclo-penta[d]imidazol-4-yl]-1H-1,2,3-triazole-4-carboxamide] displayed an IC50 of 3.1 nM. The value for `CC(C)Cc1nc(N2CC3CC3C2)ccc1Cn1cnc(C(=O)N[C@@H]2CCc3c2ncn3C)c1` (stereo partly drawn) [Example 100, 1-[(6-{3-Azabicyclo[3.1.0]hexan-3-yl}-2-(2-methylpropyl)pyridin-3-yl)methyl]-N-[(4R)-1-methyl-1H,4H,5H,6H-cyclopenta[d]imidazol-4-yl]-1H-imidazole-4-carboxamide] was 5.6 nM; that for `Cc1cc(Cn2cnc(C(=O)N[C@@H]3CCc4c3ncn4C)c2)c(C)nc1N1CC2CC2C1` (stereo partly drawn) [Example 129, 1-[(6-{3-Azabicyclo[3.1.0]hexan-3-yl}-2,5-dimethylpyridin-3-yl)methyl]-N-[(4R)-1-methyl-1H,4H,5H,6H-cyclopenta[d]imidazol-4-yl]-1H-imidazole-4-carboxamide] was 23.7 nM. The value for `Cc1cc(Cn2cc(C(=O)N[C@@H]3CCc4c3ncn4C)cn2)c(C)nc1N1CC2CC2C1` (stereo partly drawn) [Example 130, 1-[(6-{3-Azabicyclo[3.1.0]hexan-3-yl}-2,5-dimethylpyridin-3-yl)methyl]-N-[(4R)-1-methyl-1H,4H,5H,6H-cyclopenta[d]imidazol-4-yl]-1H-pyrazole-4-carboxamide] was 20 nM. `Cn1cnc2c1CC[C@H]2NC(=O)c1cn(Cc2ccc(N3CC4C(C3)C4(F)F)cn2)nn1` (stereo partly drawn) [Example 138, 1-[(5-{6,6-Difluoro-3-azabicyclo[3.1.0]hexan-3-yl}pyridin-2-yl)methyl]-N-[(4R)-1-methyl-1H,4H,5H,6H-cyclopenta[d]imidazol-4-yl]-1H-1,2,3-triazole-4-carboxamide]: half-maximal inhibition (IC50) was put at 2.2 nM. The figure for `CCc1nc(N2CC3(CC3)C2)ccc1Cc1cc(C(=O)N[C@@H]2CCc3c2ncn3C)on1` [Example 156, 3-[(6-{5-Azaspiro[2.3]hexan-5-yl}-2-ethylpyridin-3-yl)methyl]-N-[(4R)-1-methyl-1H,4H,5H,6H-cyclopenta[d]imidazol-4-yl]-1,2-oxazole-5-carboxamidef] is 0.8 nM; for `Cn1cnc2c1CC[C@H]2NC(=O)c1cc(Cc2ccc(N3CC4(CC4)C3)nc2Cl)no1` [Example 157, 3-[(6-{5-Azaspiro[2.3]hexan-5-yl}-2-chloropyridin-3-yl)methyl]-N-[(4R)-1-methyl-1H,4H,5H,6H-cyclopenta[d]imidazol-4-yl]-1,2-oxazole-5-carboxamide] it is 1.2 nM. The value for `Cc1nc(N2CC3(CC3)C2)ncc1Cn1cnc(C(=O)N[C@@H]2CCc3c2ncn3C)c1` [Example 172, 1-[(2-{5-Azaspiro[2.3]hexan-5-yl}-4-methylpyrimidin-5-yl)methyl]-N-[(4R)-1-methyl-1H,4H,5H,6H-cyclopenta[d]imidazol-4-yl]-1H-imidazole-4-carboxamide] was 8.1 nM; that for `Cn1cnc2c1CC[C@H]2NC(=O)c1cn(Cc2ccc(N3CC4C(C3)C4(F)F)nc2)c(Cl)n1` (stereo partly drawn) [Example 176, 2-Chloro-1-[(6-{6,6-difluoro-3-azabicyclo-[3.1.0]hexan-3-yl}pyridin-3-yl)methyl]-N-[(4R)-1-methyl-1H,4H,5H,6H-cyclopenta[d]imidazol-4-yl]-1H-imidazole-4-carboxamide] was 4.2 nM; that for `CCc1nc(N2CC3CC3C2)ccc1Cc1ccc(C(=O)N[C@@H]2CCc3c2ncn3C)s1` (stereo partly drawn) [Example 183, 5-[(6-{3-Azabicyclo[3.1.0]hexan-3-yl}-2-ethylpyridin-3-yl)methyl]-N-[(4R)-1-methyl-1H,4H,5H,6H-cyclopenta[d]imidazol-4-yl]thiophene-2-carboxamide] was 19.4 nM. For `Cc1nc(N2CC3C(C2)C3(F)F)ccc1Cc1ccc(C(=O)N[C@@H]2CCc3c2ncn3C)o1` (stereo partly drawn) [Example 189, 5-[(6-{6,6-Difluoro-3-azabicyclo[3.1.0]hexan-3-yl}-2-methylpyridin-3-yl)methyl]-N-[(4R)-1-methyl-1H,4H,5H,6H-cyclopenta[d]imidazol-4-yl]furan-2-carboxamide], the IC50 is 22.1 nM. In the case of `Cn1cnc2c1CC[C@H]2NC(=O)c1cnn(Cc2cc(F)c(N3CC4CC4C3)c(F)c2)c1` (stereo partly drawn) [Example 191, 1-[(4-{3-Azabicyclo[3.1.0]hexan-3-yl}-3,5-difluorophenyl)methyl]-N-[(4R)-1-methyl-1H,4H,5H,6H-cyclopenta[d]imidazol-4-yl]-1H-pyrazole-4-carboxamide], the IC50 was determined as 169 nM.

`Cn1cnc2c1CC[C@H]2NC(=O)c1cnc(Cc2cc(F)c(N3CC4CC4C3)c(F)c2)[nH]1` (stereo partly drawn) [Example 192, 2-[(4-{3-azabicyclo[3.1.0]hexan-3-yl}-3,5-difluorophenyl)methyl]-N-[(4R)-1-methyl-1H,4H,5H,6H-cyclopenta[d]imidazol-4-yl]-1H-imidazole-4-carboxamide] had an IC50 of 1890 nM. The figure for `Cn1cnc2c1CC[C@H]2NC(=O)c1cnn(Cc2cc(F)c(N3CC4CC4C3)c(C#N)c2)c1` (stereo partly drawn) [Example 195, 1-[(4-{3-azabicyclo[3.1.0]hexan-3-yl}-3-cyano-5-fluorophenyl)methyl]-N-[(4R)-1-methyl-1H,4H,5H,6H-cyclopenta[d]imidazol-4-yl]-1H-pyrazole-4-carboxamide] is 20.3 nM; for `Cn1cnc2c1CC[C@H]2NC(=O)c1cnn(Cc2cc(C#N)c(N3CC4CC4C3)c(C#N)c2)c1` (stereo partly drawn) [Example 197, 1-[(4-{3-azabicyclo[3.1.0]hexan-3-yl}-3,5-dicyanophenyl)methyl]-N-[(4R)-1-methyl-1H,4H,5H,6H-cyclopenta[d]imidazol-4-yl]-1H-pyrazole-4-carboxamide] it is 13.4 nM.

In the case of `Cc1cc(N2CC3CC3C2)c(C#N)cc1Cn1cc(C(=O)N[C@@H]2CCc3c2ncn3C)cn1` (stereo partly drawn) [Example 200, 1-[(4-{3-azabicyclo[3.1.0]hexan-3-yl}-5-cyano-2-methylphenyl)methyl]-N-[(4R)-1-methyl-1H,4H,5H,6H-cyclopenta[d]imidazol-4-yl]-1H-pyrazole-4-carboxamide], the IC50 was determined as 8.6 nM. The figure for `Cc1cc(N2CC3CC3C2)ccc1Cn1cnc(C(=O)N[C@@H]2CCc3c2ncn3C)c1` (stereo partly drawn) [Example 205, 1-[(4-{3-azabicyclo[3.1.0]hexan-3-yl}-2-methylphenyl)methyl]-N-[(4R)-1-methyl-1H,4H,5H,6H-cyclopenta[d]imidazol-4-yl]-1H-imidazole-4-carboxamide] is 8.3 nM; for `COc1nc(N2CC3C(C2)C3(F)F)ccc1Cn1cc(C(=O)N[C@@H]2CCc3c2ncn3C)cn1` (stereo partly drawn) [Example 221, 1-[(6-{6,6-Difluoro-3-azabicyclo[3.1.0]hexan-3-yl}-2-methoxypyridin-3-yl)methyl]-N-[(4R)-1-methyl-1H,4H,5H,6H-cyclopenta[d]imidazol-4-yl]-1H-pyrazole-4-carboxamide] it is 2.8 nM.

The molecule `Cc1nc(N2CCC3(CC2)CC(C)(O)C3)ncc1Cn1cc(C(=O)N[C@@H]2CCc3c2ncn3C)cn1` [Example 223, 1-[(2-{2-Hydroxy-2-methyl-7-azaspiro[3.5]nonan-7-yl}-4-methylpyrimidin-5-yl)methyl]-N-[(4R)-1-methyl-1H,4H,5H,6H-cyclopenta[d]imidazol-4-yl]-1H-pyrazole-4-carboxamide] yielded an IC50 of 7540 nM. For the molecule `Cc1nc(N2C[C@@H]3[C@H](C#N)[C@@H]3C2)ncc1Cn1cc(C(=O)N[C@@H]2CCc3c2ncn3C)cn1` [Example 224, 1-({2-[(1R,5S,6S)-6-Cyano-3-azabicyclo[3.1.0]Lhexan-3-yl]-4-methylpyrimidin-5-yl}methyl)-N-[(4R)-1-methyl-1H,4H,5H,6H-cyclopenta[d]imidazol-4-yl]-1H-pyrazole-4-carboxamide], half-maximal inhibition (IC50) required 302 nM.
